How the values were obtained:
Experiment in all cases: relative viability (nuclei count vs DMSO), 5 days (fraction); higher = more cells survive
[1] = compound: CN[C@@H]1C[C@H]2O[C@@](C)([C@@H]1OC)n1c3ccccc3c3c4c(c5c6ccccc6n2c5c31)C(=O)NC4 [Staurosporine] + CS(=O)(=O)N1CCN(Cc2cc3nc(-c4cccc5[nH]ncc45)nc(N4CCOCC4)c3s2)CC1 [Pictilisib] (partner 1 µM)
Outline: (§1)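 Values are medians from duplicate plates. Each reflects relative viability, defined as the nuclei count of treated wells over that of vehicle wells. Lung cancer cell lines in 1536-well plates were pin-tool dosed one day after seeding with one drug alone or with a fixed anchor-drug dose plus five library-drug doses (not always all listed) in √10 steps, then fixed, stained and imaged at 4× after 5 days.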

[2] = compound: CN[C@@H]1C[C@H]2O[C@@](C)([C@@H]1OC)n1c3ccccc3c3c4c(c5c6ccccc6n2c5c31)C(=O)NC4 [Staurosporine] + CC(C)C[C@H](NC(=O)[C@H](Cc1ccccc1)NC(=O)c1cnccn1)B(O)O [Bortezomib] (partner 0.002 µM)
Outline: as §1

[3] = compound: O=c1[nH]cc(F)c(=O)[nH]1 [5-Fluorouracil] + Cc1cc(Nc2cc(N3CCN(C)CC3)nc(Sc3ccc(NC(=O)C4CC4)cc3)n2)n[nH]1 [Tozasertib] (partner 0.1 µM)
Outline: as §1

[4] = compound: CN[C@@H]1C[C@H]2O[C@@](C)([C@@H]1OC)n1c3ccccc3c3c4c(c5c6ccccc6n2c5c31)C(=O)NC4 [Staurosporine] + N=C(N)NC(=N)NCCc1ccccc1 [Phenformin] (partner 250 µM)
Outline: as §1

UMC-11
relative viability ([1]; first compound 0.005 µM): 0.841
relative viability ([1]; first compound 0.01581 µM): 0.115
relative viability ([1]; first compound 0.05 µM): 0.207
relative viability ([1]; first compound 0.1581 µM): 0.101
relative viability ([1]; first compound 0.5 µM): 0.0718
relative viability ([2]; first compound 0.005 µM): 0.664
relative viability ([2]; first compound 0.01581 µM): 0.131
relative viability ([2]; first compound 0.05 µM): 0.454
relative viability ([2]; first compound 0.1581 µM): 0.0878
relative viability ([2]; first compound 0.5 µM): 0.0678
relative viability ([3]; first compound 0.02 µM): 0.183
relative viability ([3]; first compound 0.2 µM): 0.188
relative viability ([3]; first compound 0.6325 µM): 0.203
relative viability ([3]; first compound 2 µM): 0.188
relative viability ([4]; first compound 0.005 µM): 0.305
relative viability ([4]; first compound 0.01581 µM): 0.168
relative viability ([4]; first compound 0.05 µM): 0.135
relative viability ([4]; first compound 0.1581 µM): 0.0915
relative viability ([4]; first compound 0.5 µM): 0.13
